Assay results: patent US5605929A, “Methods and compositions for inhibiting 5α-reductase activity” (priority 1995, dated 1997)
Where two headings read alike, the source gives them in different places.

How the values were obtained:
[1] = target: T1, HIV-1 reverse transcriptase (Human immunodeficiency virus type 1 group M subtype B, UniProt P04585); settings: cited from earlier work
T1 construct: HIV-1 reverse transcriptase

[2] = system: human breast tumor cell line, MDF-7; assay: Human breast tumor growth in nude mice; assay type: in vivo; settings: 1 mg/mouse/day, 2 weeks
Method: For breast tumor studies, human breast tumor cell line, MDF-7 (1 million cells) was injected into female nude mice. After 5 weeks, the tumor was over 1000 mm^3.

[3] = target: rat small intestinal maltase; settings: cited from earlier work
[4] = target: T2, α-Amylase of human saliva (Homo sapiens, UniProt P0DUB6); settings: cited from earlier work
T2 construct: α-Amylase of human saliva; host or cells: human saliva
T2 sequence (P0DUB6 16-511): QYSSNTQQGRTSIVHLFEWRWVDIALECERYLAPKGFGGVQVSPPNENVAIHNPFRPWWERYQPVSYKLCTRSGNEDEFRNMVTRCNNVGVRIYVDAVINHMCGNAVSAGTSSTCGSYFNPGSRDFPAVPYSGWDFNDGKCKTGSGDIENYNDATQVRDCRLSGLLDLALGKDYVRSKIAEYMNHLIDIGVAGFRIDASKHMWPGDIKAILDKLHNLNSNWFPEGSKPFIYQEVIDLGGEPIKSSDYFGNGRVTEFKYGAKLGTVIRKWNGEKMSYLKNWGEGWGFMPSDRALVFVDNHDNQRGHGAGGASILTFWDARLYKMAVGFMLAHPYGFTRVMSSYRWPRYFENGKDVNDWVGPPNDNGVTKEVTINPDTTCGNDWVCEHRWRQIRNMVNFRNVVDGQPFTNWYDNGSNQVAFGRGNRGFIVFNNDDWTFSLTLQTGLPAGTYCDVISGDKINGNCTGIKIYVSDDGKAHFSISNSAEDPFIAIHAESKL

[5] = system: androgen-dependent organs; assay type: in vivo, rat
Method: The control rats were injected with 0.3 ml of 30% ethanol.

[6] = system: prostate and preputial glands; assay: EGCG ip 7 days, normal and castrated rats with androgen; assay type: in vivo, rat; settings: for prostate weight reduction: 5 mg/day
Method: Male Sprague-Dawley rats, 60±5 g body weight, were used. Rats were divided into 6 groups. Each group had 5 rats. Groups 1 and 2 were normal rats while the other 4 groups had rats castrated on the first day. […] The control rats (Group 1) received 0.1 ml of 30% ethanol.

[7] = system: Human prostate cancer PC-3 cells; assay: PC-3 tumor growth in nude mice; assay type: in vivo, nude mice (human tumor)
Method: Human prostate cancer PC-3 cells were grown in culture medium. About one million cells were injected into male nude mice and the growth of tumors were followed. Within two weeks, the tumor grew to about 100 mm^3. […] The 3 controls received water only.

[8] = NADPH oxidation in presence of microsomes
LNCaP = assay: cells; settings: Homo sapiens, read-out: 5α-DHT formed (% of control)
[9] = system: Human Prostatic Cancer Cells; assay: Cell morphology during 2 hour incubation; assay type: cell-based
[10] = system: forehead sebum production; assay: Forehead sebum production (L/R ratio), human male; assay type: in vivo
Method: A volunteer was used to test and analyze sebum production from the forehead region. The forehead was washed thoroughly by soap twice and cleaned by 70% isopropyl alcohol twice. Sebum production was measured 30 to 60 minutes later by a sebum meter (Courage/Khazaka Electronic GmbH, Germany). The sebum meter tape probe (7 mm×8 mm) covered 56 mm^2 area in each measurement. Ten measurements were made within the 4 cm square area (16 cm^2) located at the middle of the left or right side forehead between the eyebrow and the hair line.
The sebum meter detected the difference in the transparency of the tape before and after the tape was placed on the forehead for 30 seconds and expressed the difference in an arbitrary number (S-value) between 0 to 300 (or higher). S-values of sebum accumulated on the foreheads of men are usually 200 to 300.

[11] = ethanol solution
[12] = system: human liver microsomes 5α-reductase; settings: vs rat liver microsomes
Method: Briefly, the binding assay solution, in a final volume of 0.15 ml, contained microsomes (2-20 μg of protein), 0.08 μCi of [^3 H]4-MA, 0.1 mM-NADPH, 1 mM-dithiothreitol and 50 mM-potassium phosphate, pH 7.0, with or without the indicated amount of a lipid or an inhibitor preparation. Lipids were dissolved in ethanol and added in 1-5 μl volumes. Control tubes received the same amount of ethanol. After incubation at 0° C. for 1 h, the [^3 H]4-MA bound to microsomes was determined by collecting microsomes on a Whatman GF/1F glass fibre filter and washing with 10 ml of 20 mM-potassium phosphate, pH 7.0, containing 0.01% CHAPS to remove unbound [^3 H]4-MA.
Microsomes were prepared at 4° C. from a buffered 0.32M-sucrose homogenate of human liver and from the livers of adult Sprague-Dawley female rats by differential centrifugation as described previously (Liang et al., 1990), and were used in the assay of 5α-reductase activity. In some experiments, microsomes were solubilized with 0.1% polyoxyethylene ether W-1 as described previously (Liang et al., 1990), except for the substitution of polyoxyethylene ether W-1 for Lubrol-WX.
NADH:menadione reductase = settings: 10 to 40 μM
[13] = target: T3, 5α-Reductase of Rat Liver Microsomes (Rattus norvegicus, UniProt P24008); assay: biochemical; settings: for Ki: apparent Ki values for [^3 H]4-MA
T3 sequence (P24008 1-259): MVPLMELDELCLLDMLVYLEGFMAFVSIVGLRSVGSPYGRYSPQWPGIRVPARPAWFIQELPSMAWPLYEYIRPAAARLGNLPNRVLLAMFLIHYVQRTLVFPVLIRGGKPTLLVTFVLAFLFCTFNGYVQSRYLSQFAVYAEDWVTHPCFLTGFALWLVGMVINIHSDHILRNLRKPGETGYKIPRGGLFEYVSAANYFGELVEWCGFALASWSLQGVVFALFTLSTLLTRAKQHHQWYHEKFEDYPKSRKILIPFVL

hamster flank organ = settings: for Pigmented macule, right flank organ / Pigmented macule, left flank organ (vehicle): 15 days; for Pigmented macule, right flank organ: vehicle 23.5 ± 3.8
Method: Animals were divided into 10/group. The right flank organ was treated daily with 5 μl solution containing vehicle (ethanol) alone or γ-LA (0.5, 1, and 2 mg) for 15-25 days. The left flank organ of all animals received the same volume of vehicle.
The lengths of the long axis and the short axis of the pigmented spot (pigmented macule) were measured using a caliper with digital display (Digimatic, Mitutoyo Corp., Japan). […] The data are presented as mean ± standard deviation.

[14] = system: UDP-glucuronic acid:5α-DHT glucuronosyl transferase; settings: 10 to 40 μM
[15] = read-out: % Inhibition of [^3 H]4-MA binding

In the case of `O=C(O[C@@H]1Cc2c(O)cc(O)cc2O[C@@H]1c1cc(O)c(O)c(O)c1)c1cc(O)c(O)c(O)c1` [EGCG, (-)Epigallocatechin-3-gallate], the IC50 [1] is given as 40 nM, the tumor reduction [2] is given as 50% and the IC50 [3] is given as 50000 to 500000 nM. The IC50 [4] was 50000 to 500000 nM, the body weight reduction ([5]; 10 mg per day) was “about 10%” and the “coagulating glands weight reduction” value ([5]; 10 mg per day) was “about 30%”. For the same molecule, the “dorsolateral prostate weight reduction” value ([5]; 10 mg per day) was “about 30%”, the “effect on weights of testis and kidney” value ([5]; 10 mg per day) was “not significant” and the “preputial glands weight loss” value ([5]; 10 mg per day) was 20 to 25%. The “seminal vesicles weight loss” value ([5]; 10 mg per day) was 20 to 25%, the “ventral prostate weight reduction” value ([5]; 10 mg per day) was “about 30%” and the body weight loss ([5]; 10 mg per day, discussion) was “less than 10%”. For the same molecule, the prostate weight loss ([5]; 10 mg per day, discussion) was “more than 30%”, the body weight reduction ([5]; 15 mg per day) was “about 25%” and the “effect on weights of testis and kidney” value ([5]; 15 mg per day) was ≤ 10%. For the same molecule, the “weight reduction for all of these organs” value ([5]; 15 mg per day, prostates, coagulating glands, seminal vesicles, preputial glands) was ≥ 60%, the “reversibility of body weight effect” value ([5]; application stopped, FIG. 38) was “reversible” and the “organ weights” value ([5]; male rats, ventral and dorsolateral prostates, coagulating glands, seminal vesicles, preputial glands) was “without affecting the weight of testis or kidney”. The “prostate weight reduction” value ([6]; castrated + 5α-DHT) was “no reduction”, the prostate weight reduction ([6]; castrated + testosterone) was “about 23%” and the body weight reduction ([6]; normal and castrated rats with testosterone or 5α-DHT, 7 days) was 8±1%. For the same molecule, the prostate weight reduction ([6]; normal rats) was “about 30%”, the “pathology examination of organs and blood” value ([6]; rat, in vivo) was “did not reveal any abnormal growth or pathogenic effects” and the tumor size ([7]; FIG. 33, 1 mg/day, two weeks, controls about 450) was “smaller than 100 mm^3”. For the same molecule, the tumor size ([7]; FIG. 34, 1400 mm^3 tumor, after 2 weeks of EGCG) was “about 850 mm^3”, the tumor size ([7]; FIG. 34, 1400 mm^3 tumor, after another 2 weeks of EGCG) was “about 500 mm^3” and the tumor size ([7]; FIG. 34, during the 2 week injection) was “about 100 mm^3”. The tumor size ([7]; FIG. 34, within 2 weeks after injection stopped) was “about 800 mm^3”, the tumor size ([7]; FIG. 34, within 3 weeks after injection stopped) was “over 1200 mm^3” and the NADPH oxidation [8] was “did not induce NADPH oxidation”.

In the case of `CCCCC/C=C\C/C=C\C/C=C\CCCCC(=O)O` [γ-Linolenic acid, γ-linolenic acid], the activity at 50 µM (LNCaP) is reported as 27%, the activity at 100 µM (LNCaP) is reported as 9 ± 4% and the “visible change in cell morphology” value [9] is reported as “did not produce any visible”. The “L/R sebum ratio at end of treatment” value ([10]; 20 mg twice a day, 6 days) was 0.22, the “L/R sebum ratio recovered after treatment stopped” value ([10]; 16 days after stop) was 1.20±0.14 and the “oxidation products by TLC” value ([11]; 5 weeks of storage) was “two additional more polar products”. The “changes of the compound by TLC” value ([11]; refrigerated for 3 weeks) was “no detectable changes”, the “inhibition of NADPH-dependent [^3 H]4-MA binding” value [12] was “to the same degree as in experiments with rat liver microsomes” and the “effect on NADH:menadione reductase” value (NADH:menadione reductase) was “did not affect”. For the same molecule, the Ki ([13]; γ-LA 5 μM) was 20 nM, the Ki ([13]; γ-LA 10 μM) was 40 nM and the inhibition at 5 µM [13, 15] was 30%. The inhibition at 10 µM [13, 15] was 50 ± 2%, the inhibition at 40 µM [13, 15] was 83 ± 12% and the inhibition at 200 µM [13, 15] was 96 ± 2%. The “growth rate of pigmented macules” value (hamster flank organ; FIG. 32, 1 and 2 mg) was “dramatically reduced”, the “change of pigmented macule (#)” value (hamster flank organ; Table 7, 0.5 mg) was -34% and the “change of pigmented macule (*)” value (hamster flank organ; Table 7, 0.5 mg) was -19%. The “Pigmented macule, right flank organ” value (hamster flank organ; Table 7, 0.5 mg/day) was 19.0 ± 3.6 mm^2, the “change of pigmented macule (#)” value (hamster flank organ; Table 7, 1.0 mg) was -63% and the “change of pigmented macule (*)” value (hamster flank organ; Table 7, 1.0 mg) was -54%. For the same molecule, the “Pigmented macule, right flank organ” value (hamster flank organ; Table 7, 1.0 mg/day) was 10.8 ± 2.7 mm^2, the “Pigmented macule, left flank organ (vehicle)” value (hamster flank organ; Table 7, group 2, right treated with 0.5 mg) was 28.6 ± 4.0 mm^2 and the “Pigmented macule, left flank organ (vehicle)” value (hamster flank organ; Table 7, group 3, right treated with 1.0 mg) was 29.2 ± 4.8 mm^2. For the same molecule, the “effect on contralateral pigmented macules” value (hamster flank organ; hamster, in vivo) was “not affected” and the “effect on UDP-glucuronic acid:5α-DHT glucuronosyl transferase” value [14] was “did not affect”.
